Reference: US9982028B2, “Recombinant human interferon-like proteins” (Novagen Holding Corporation, priority 2007, dated 2018)
Entries after “also recorded” stand apart in the source; their conditions may differ.

Tests used:
[1] = tested on: human melanoma A-375 xenografts; experiment: Human melanoma xenograft model; assay type: in vivo, athymic nude Balb/c mice; settings: A-375 xenograft, 30 mg/kg (30,000 μg/kg) i.v. once every 2 days for 5 times
[2] = tested on: human colon cancer LS 180 xenografts; experiment: Human colon cancer xenograft model; assay type: in vivo, athymic nude Balb/c mice; settings: LS 180 xenograft, 30 mg/kg (30,000 μg/kg) i.v. once every 2 days for 5 times
[3] = tested on: human leukemia HL 60(s) xenografts; experiment: Human leukemia xenograft model; assay type: in vivo, athymic nude Balb/c mice; settings: HL 60(s) xenograft, 30 mg/kg (30,000 μg/kg) i.v. once every 2 days for 5 times
[4] = General condition of the mice during treatment; assay type: in vivo; settings: mice with human cancer xenografts, during the treatment period

SMILES: O=c1[nH]cc(F)c(=O)[nH]1 [5-FU, 5-Fluorouracil, reference compound]
- Inhibition rate [1]: 67.2%
- Tumor weight (X ± SD) ([1]; n = 10): 1.004 ± 0.105 g
- Inhibition rate [2]: 81.8%
- Tumor weight (X ± SD) ([2]; n = 10): 0.758 ± 0.227 g
- Inhibition rate [3]: 76.0%
- Tumor weight (X ± SD) ([3]; n = 10): 0.893 ± 0.289 g
- general condition of treated mice (eating, behavior, weight loss) [4]: significant weight loss and activity reduction; also recorded: showed typical changes of eating and behavior, and weight loss
